One assay concerns Staphylococcus aureus. Nature of the assay: Susceptibility testing (MIC) Assay 1, broth microdilution. In kind it is cell-based. Conditions: Staphylococcus aureus. On the procedure:
(§1) Minimum Inhibitory Concentrations (MICs) were determined by the broth microdilution method in accordance with the Clinical and Laboratory Standards Institute (CLSI) guidelines. In brief, organism suspensions were adjusted to a 0.5 McFarland standard to yield a final inoculum between 3×10^5 and 7×10^5 colony-forming units (CFU)/mL. Bacterial inocula were prepared for most organisms in sterile, cation adjusted Mueller-Hinton Broth (Beckton Dickinson). The streptococci were prepared as above in cation adjusted Mueller-Hinton Broth to which 2.5% lysed horse blood (Hema Resource & Supply Inc.) was added. An inoculum volume of 100 μL was added to wells (using a Tecan EVO robot) containing 2 μL of DMSO containing 2-fold serial dilutions of drug. All inoculated microdilution trays were incubated in ambient air at 35° C. for 18-24 hours. Following incubation, the lowest concentration of the drug that prevented visible growth as read at OD600 nm and confirmed by a visual read using a test reading mirror was recorded as the MIC. Performance of the assay was monitored by the use of laboratory quality-control strains and commercially available control compounds with defined MIC spectrums, in accordance with CLSI guidelines. Table 1 provides the MIC results (μM) of Examples 1-77 tested in Assay 1. Table 2 provides the MIC (μg/mL) results of Examples 78-80 tested in Assay 1.

The test system of a further assay is Streptococcus pneumoniae. The description is as above. In kind it is cell-based. On the procedure:
as §1

A further assay relates to Streptococcus pyogenes. The description is as above. Format: cell-based. Conditions: Streptococcus pyogenes, Streptococcus pyrgenes, in vivo strain; read-out: Spy MIC. The method, then: as §1
The subject of the next assay is Escherichia coli. Nature of the assay: Susceptibility testing (MIC) Assay 2, broth microdilution. In kind it is cell-based. Conditions: K12, read-out: Eco MIC. The method, then:
(§2) Minimum Inhibitory Concentrations (MICs) were determined by the broth microdilution method in accordance with the Clinical and Laboratory Standards Institute (CLSI) guidelines. In brief, organism suspensions were adjusted to a 0.5 McFarland standard to yield a final inoculum between 3×10^5 and 7×10^5 colony-forming units (CFU)/mL. Bacterial inocula were generally prepared in sterile, cation adjusted Mueller-Hinton Broth (Becton Dickinson) which included Escherichia coli, Klebsiella pneumoniae, and Pseudomonas aeruginosa. Haemophilus influenzae bacterial inocula were prepared in sterile, cation adjusted Mueller-Hinton Broth (Becton Dickinson) containing 0.5% yeast extract (Becton Dickinson) plus 30 mL of 15 μg/mL Bovine Hematin stock (Sigma), and 3 mL of 15 μg/mL β-nicotinamide adenine dinucleotide (Sigma). Strains of Neisseria were tested for MICs using agar dilution methodology in accordance with CLSI guidelines. For broth microdilution testing, an inoculum volume of 100 μL was added to wells (using a Tecan EVO robot) containing 2 μL of DMSO containing 2-fold serial dilutions of drug. All inoculated microdilution panels were incubated in ambient air at 35° C. for 18-24 hours. Following incubation, the lowest concentration of the drug that prevented visible growth as read at OD600 nm and confirmed by a visual read using a test reading mirror was recorded as the MIC. Performance of the assay was monitored by the use of laboratory quality-control strains and commercially available control compounds with defined MIC spectrums, in accordance with CLSI guidelines. Table 3 provides the MIC results (μM) of Examples 1-77 tested in Assay 2. Table 4 provides the MIC (μg/mL) results of Examples 78-80 tested in Assay 2.
(Broth dilution looks for growth in wells or tubes with falling amounts of substance.)

For a further assay, the system named is Haemophilus influenzae. Described as above. In kind it is cell-based. Conditions: ATCC51907, Haemophilus influenzae, ATCC 51907, in vivo strain, read-out: Hin MIC. On the procedure:
as §2

Another assay deals with Klebsiella pneumoniae. The description is as above. Format: cell-based. The note with it: clinical isolate, mucoid, read-out: Kpn MIC. On the procedure:
as §2

Another assay deals with Pseudomonas aeruginosa. The assay is described as above. Format: cell-based. Conditions: PAO1, read-out: Pae MIC. The method, then: as §2
For assay [1], the target named is Escherichia coli DNA gyrase A/B tetramer (Escherichia coli (strain K12), UniProt P0AES4+P0AES6). Briefly: DNA gyrase supercoiling activity fluorescence polarisation assay. Format: biochemical. The note with it: Eco Gyr FP Mean IC50, E. coli DNA gyrase supercoiling, 0.3 mM ATP. On the procedure: In a black, 384-well polystyrene assay plate, 30 microliters/well of 5 nM Escherichia coli DNA gyrase A/B tetramer and 130 micrograms/mL of topologically relaxed plasmid containing the triplex-forming sequence
in an assay buffer consisting of 35 mM Tris-HCl (pH 7.5), 24 mM KCl, 4 mM MgCl2, 2 mM dithiothreitol, 1.8 mM spermidine, 5% (v/v) glycerol, 200 nM bovine serum albumin, 0.8% dimethylsulfoxide, and 0.3 mM ATP were incubated at ambient temperature for (typically 30 minutes) in the absence or presence of 5-10 different concentrations of test compound. The supercoiling reactions were quenched by the addition of 10 microliters/well of 40 nM oligodeoxynucleotide probe in 3× triplex-forming buffer consisting of 150 mM NaCl, and 150 mM sodium acetate at pH 3.5. The oligodeoxynucleotide probe was 5′-BODIPY-FL-labeled
After 60 minutes, the fluorescence anisotropy of the BODIPY-FL was measured in a Tecan Ultra plate reader, using 485 nm excitation and 535 nm emission filters equipped with polarizers. The IC50 was determined by nonlinear regression using two control reactions.

Where [2] appears, read: Staphylococcus aureus in vivo strain, MSQS, read-out: Sau(d) MIC.
[3] abbreviates: in vivo strain, MRQR, read-out: Sau(e) MIC.
The mark [4] stands for this setting: in vivo strain (footnote b), read-out: Spn(b) MIC.
The mark [5] stands for this setting: in vivo strain (footnote c), read-out: Spn(c) MIC.

Usually IC50 stands for the concentration that gives 50% inhibition.

In brackets after ≈: the same amount, converted by molar mass. Where two headings read alike, the source gives them in different places.

In the case of `C[C@@H]1CN2c3c(cc4c(N5C(=O)OC[C@H]5c5ncnn5C)noc4c3F)CC3(C(=O)NC(=O)NC3=O)[C@H]2[C@H](C)O1` [Example 69, (2R,4S,4aS)-11-Fluoro-2,4-dimethyl-8-((R)-4-(1-methyl-1H-1,2,4-triazol-5-yl)-2-oxooxazolidin-3-yl)-2,4,4a,6-tetrahydro-1H,1′H-spiro[isoxazolo[4,5-g][1,4]oxazino[4,3-a]quinoline-5,5′-pyrimidine]-2′,4′,6′(3′H)-trione], the MIC came to 12 µM (≈ 6.65 µg/mL) in the assay on Staphylococcus aureus (setting [2]); 25 µM (≈ 13.9 µg/mL) with Staphylococcus aureus (setting [3]); 12 µM (≈ 6.65 µg/mL) in the assay on Staphylococcus aureus (serum, read-out: Sau(f) MIC); 12 µM (≈ 6.65 µg/mL) in the assay with Streptococcus pneumoniae (setting [4]); 12 µM (≈ 6.65 µg/mL) in the assay with Streptococcus pneumoniae (setting [5]); 3.1 µM (≈ 1.72 µg/mL) in the assay on Streptococcus pyogenes. In addition, the MIC was greater than 200 µM with Escherichia coli, 3.1 µM (≈ 1.72 µg/mL) in the assay on Haemophilus influenzae, greater than 200 µM in the assay with Klebsiella pneumoniae and greater than 200 µM in the assay on Pseudomonas aeruginosa. This compound also displayed an IC50 in assay [1] of 0.6 µM.
For `CCOC[C@H]1COC(=O)N1c1noc2c(F)c3c(cc12)CC1(C(=O)NC(=O)NC1=O)[C@H]1[C@H](C)O[C@H](C)CN31` [Example 49, (2R,4S,4aS)-8-[(4S)-4-(Ethoxymethyl)-2-oxo-1,3-oxazolidin-3-yl]-11-fluoro-2,4-dimethyl-1,2,4,4a-tetrahydro-2′H,6H-spiro[1,4-oxazino[4,3-a][1,2]oxazolo[4,5-g]quinoline-5,5′-pyrimidine]-2′,4′,6′(1′H,3′H)-trione], the MIC in the assay with Staphylococcus aureus (setting [2]) is 0.39 µM (≈ 0.207 µg/mL); with Staphylococcus aureus (setting [3]) it was 0.78 µM (≈ 0.415 µg/mL); in the assay with Staphylococcus aureus (serum, read-out: Sau(f) MIC), 0.78 µM (≈ 0.415 µg/mL); in the assay with Streptococcus pneumoniae (setting [4]), 0.78 µM (≈ 0.415 µg/mL); in the assay with Streptococcus pneumoniae (setting [5]), 1.6 µM (≈ 0.85 µg/mL); in the assay on Streptococcus pyogenes it was 0.78 µM (≈ 0.415 µg/mL). Also, the MIC in the assay with Escherichia coli was 50 µM (≈ 26.6 µg/mL); with Haemophilus influenzae, 1.6 µM (≈ 0.85 µg/mL); in the assay on Klebsiella pneumoniae it was greater than 200 µM; in the assay on Pseudomonas aeruginosa, greater than 200 µM. This compound displayed a concentration for half-maximal inhibition (IC50) in assay [1] of 0.38 µM.
Regarding `C[C@@H]1CN2c3c(cc4c(N5C[C@H](C)OC5=O)noc4c3F)CC3(C(=O)NC(=O)NC3=O)[C@H]2[C@H](C)O1` [Example 3, (2R,4S,4aS)-11-Fluoro-2,4-dimethyl-8-[(5S)-5-methyl-2-oxo-1,3-oxazolidin-3-yl]-1,2,4,4a-tetrahydro-2′H,6H-spiro[1,4-oxazino[4,3-a][1,2]oxazolo[4,5-g]quinoline-5,5′-pyrimidine]-2′,4′,6′(1′H,3′H)-trione], the MIC in the assay on Staphylococcus aureus (setting [2]) was found to be 0.39 µM (≈ 0.19 µg/mL); in the assay with Staphylococcus aureus (setting [3]) it was 1.6 µM (≈ 0.78 µg/mL); in the assay with Staphylococcus aureus (serum, read-out: Sau(f) MIC), 1.6 µM (≈ 0.78 µg/mL); in the assay with Streptococcus pneumoniae (setting [4]), 1.6 µM (≈ 0.78 µg/mL); with Streptococcus pneumoniae (setting [5]), 1.6 µM (≈ 0.78 µg/mL); in the assay on Streptococcus pyogenes, 0.78 µM (≈ 0.38 µg/mL). The MIC with Escherichia coli was 50 µM (≈ 24.4 µg/mL); in the assay with Haemophilus influenzae it was 1.6 µM (≈ 0.78 µg/mL); in the assay with Klebsiella pneumoniae, greater than 200 µM; in the assay on Pseudomonas aeruginosa, greater than 200 µM. Further, half-maximal inhibition in assay [1] (IC50) was put at 1.44 µM.
As to `C[C@@H]1CN2c3c(cc4c(N5C[C@H](CF)OC5=O)noc4c3F)CC3(C(=O)NC(=O)NC3=O)[C@H]2[C@H](C)O1` [Example 38, (2R,4S,4aS)-11-Fluoro-8-[(5R)-5-(fluoromethyl)-2-oxo-1,3-oxazolidin-3-yl]-2,4-dimethyl-1,2,4,4a-tetrahydro-2′H,6H-spiro[1,4-oxazino[4,3-a][1,2]oxazolo[4,5-g]quinoline-5,5′-pyrimidine]-2′,4′,6′(1′H,3′H)-trione], the MIC in the assay on Staphylococcus aureus (setting [2]) is less than 0.2 µM; in the assay with Staphylococcus aureus (setting [3]), 1.65 µM (≈ 0.834 µg/mL); with Staphylococcus aureus (serum, read-out: Sau(f) MIC) it was 0.78 µM (≈ 0.394 µg/mL); in the assay on Streptococcus pneumoniae (setting [4]), 0.39 µM (≈ 0.197 µg/mL); with Streptococcus pneumoniae (setting [5]) it was 0.39 µM (≈ 0.197 µg/mL); in the assay on Streptococcus pyogenes it was less than 0.2 µM. For the same compound, the MIC in the assay on Escherichia coli is 25 µM (≈ 12.6 µg/mL); in the assay on Haemophilus influenzae, 0.39 µM (≈ 0.197 µg/mL); in the assay on Klebsiella pneumoniae, 200 µM (≈ 101 µg/mL); with Pseudomonas aeruginosa, greater than 200 µM. The same compound showed a 50% inhibitory concentration (IC50) in assay [1] of 0.067 µM.
